Laboratory results published in US20190367558A1, “ANTIBODY/DRUG CONJUGATES AND METHODS OF USE” (ESPERANCE PHARMACEUTICALS, INC., priority 2012, published 2019).
“Also recorded” adds a separate entry of the source. Read-outs that look alike come from different tables or passages of the source.

Columns and labels:
Format in all cases: cell-based, human
[1] = tested on: U937 (CD20 negative leukemia cell line); assay: Cell viability, Cell Titer Glo luminescent assay (Examples 12, 16, 19, 20, 22); conditions: for IC50, U937 (CD20 negative) 2-46 h: U937, 2-46 h (membrane integrity and viability time points), Example 12; for IC50, U937 2-48 h: Example 16
Procedure: (§1) Naked antibody anti-CD20-IgG1-Phor18 were chemically conjugated (MS4A and AT80), Mw app.158,000 g/mol at a concentrations of 0.34 mg/ml (MS4A-Phor18) and 0.76 mg/ml (AT-80-Phor18). Cell lines were obtained at the American Type Cell Collection (Mannassas, Va.). Human Non-Hodgkin's lymphoma cells Daudi (CD20 positive, passage number p2), Raji (CD20 positive p 2) and human leukemia cell line U937 (CD20 negative, p 10) were seeded at a density of 3,000 cells per well in opaque plates in heat inactivated full medium. After 24 hours cells were replenished with fresh media (75 μl) and incubated with 25 μl of a 4× serial dilution of MS4A1-Phor18 and AT80-Phor18 of 0.001, 0.01, 0.1, 1, 10, 100 and 500 nM (N=6). Cells incubated for 2-5 hours were assayed for membrane integrity using a luminometric assay kit (Promega, Madison, Wis., Cytotox Glo G9292 lot #301329). Cell viability was determined was determined after 24, and 48 hours using a luminescent assay kit (Promega, Madison, Wis., Cell Titer Glo, G 7572, lot 30068102).
(§2) The concentration of each naked antibody fragment and ADC was determined according to Bradford. Naked antibody scFv Mw 27,088 g/mol at a concentration of 0.3 mg/ml, minibody Mw 78,988 g/mol, 0.231 mg/ml; Phor 18 conjugated antibodies were scFv-Phor18 (Mw 29,349 g/mol, 0.9 mg/ml) and minibody-Phor18 (Mw 93,515, 0.48 mg/ml). Cell lines were obtained at the American Type Cell Collection (Mannassas, Va.). Human Non-Hodgkin's lymphoma cells Daudi (CD20 positive, passage number p8) and human leukemia cell line U937 (CD20 negative, p 16) were seeded at a density of 2,000 cells per well in opaque plates in heat inactivated full medium. After 24 hours cells were replenished with fresh media (75 μl) and incubated with 25 μl of a 4× serial dilution of scFv-Phor18 and minibody-Phor18 ADC and naked antibody fragment (scFv and minibody) prepared in cell culture media were added at concentrations of 0.0001, 0.001, 0.01, 0.1, 1, 10, 100, 200, and 500 nM (N=6). Cells incubated for 4 hours were assayed for membrane integrity using a luminometric assay kit (Promega, Madison, Wis., Cytotox Glo G9292 lot #301329). Cell viability was determined was determined after 24, 48 and 72 hours using a luminescent assay kit (Promega, Madison, Wis., Cell Titer Glo, G 7572, lot 30062102).
(§3) The concentration of each naked antibody fragment and ADC was determined spectrophotometrically (OD280). Naked antibody scFv-Fc Mw 52,562 g/mol at a concentration of 1.1 mg/ml, Phor 18 conjugated antibodies were Phor18-VL-scFvFc (Mw 54,685 g/mol, 1.0 mg/ml), scFv-Fc-CH3-Phor18 (Mw 54,685 g/mol, 0.8 mg/ml). Human Non-Hodgkin's lymphoma cells Daudi (CD20 positive, passage number p7) and human leukemia cell line U937 (CD20 negative, p 6) were seeded at a density of 2,000 cells per well in opaque plates in heat inactivated full medium using cell dissociation buffer. After 24 hours cells were replenished with fresh media (75 μl) and incubated and incubated with 25 μl of a 4× serial dilution of each ADC and naked antibody prepared in cell culture media were added at concentrations of 0.01, 0.1, 1, 10, 100, 200 and 500 nM for scFvFc, Phor18-VL-scFvFc and scFv-Fc-CH3-Phor18.
(§4) Cells incubated for 4 hours were assayed for membrane integrity using a luminometric assay kit (Promega, Madison, Wis., Cytotox Glo G9292 lot #26229601). Cell viability was determined was determined after 24 hours using a luminescent assay kit (Promega, Madison, Wis., Cell Titer Glo, G 7572, lot 30731602). Controls for 100% cell viability (culture media) and 100% cell death (0.1% Triton X 100) incubated under the same conditions.
Human Non-Hodgkin's lymphoma cells Daudi (CD20 positive, passage number p3) and human leukemia cell line U937 (CD20 negative, p 12) were seeded at a density of 2,000 cells per well in opaque plates in heat inactivated full medium using cell dissociation buffer. […]

[2] = tested on: Raji (CD20 positive Non-Hodgkin's lymphoma cells); assay: Cell viability, Cell Titer Glo luminescent assay (Example 12)
Procedure: as §1

[3] = tested on: Daudi (CD20 positive Non-Hodgkin's lymphoma cells); assay: Cell viability, Cell Titer Glo luminescent assay (Examples 12, 16, 19, 20, 22)
Procedure: as §1, §2
(§5) Controls for 100% cell viability (culture media) and 100% cell death (0.1% Triton X 100) incubated under the same conditions.
(§6) Data were processed and analyzed to obtain IC50 values using Graph Pad Prizm version 5.00 for Windows, GraphPad Software, San Diego Calif. USA, www-graphpad-com (Graph Pad Prizm, Inc). Statistical analysis for significance was determined by a two-tailed Student's T-test. Each test was conducted using 2 plates with 2-3 wells each to achieve an N of 4-6 data points per time point.
as §3
as §4, with “Controls for 100% cell viability (culture media) and 100% cell death (0.1% Triton X 100) incubated under the same conditions.” left out

[4] = tested on: Daudi (CD20 positive Non-Hodgkin's lymphoma cells); assay: Membrane integrity, Cytotox Glo luminometric assay (Examples 12, 16, 19, 20, 22); conditions: membrane integrity
Procedure: as §1, §2, §5, §6, §3
as §4, with “Controls for 100% cell viability (culture media) and 100% cell death (0.1% Triton X 100) incubated under the same conditions.” left out

[5] = tested on: Raji (CD20 positive Non-Hodgkin's lymphoma cells); assay: Membrane integrity, Cytotox Glo luminometric assay (Example 12)
Procedure: as §1

[6] = tested on: caspase 3/7 in Daudi cells (CD20 positive); assay: Caspase 3/7 activation, Caspase Glo 3/7 luminometric assay (Examples 13, 17); conditions: 5 hours; scFv-Phor18 or scFv at 5 and 15 μg/ml; Staurosporine 10 μM = 100%; Daudi (Raji also seeded)
Procedure: Human Non-Hodgkin's lymphoma cells Daudi (CD20 positive, passage number p2), were seeded at a density of 3,000 cells per well in opaque plates in heat inactivated full medium. After 24 hours cells were fed with fresh media (75 μl) and incubated with AT80-Phor18 (0.76 mg/ml) or naked antibody AT-80 of 15 and 75 μg/ml (100 and 500 nM) (N=6). Staurosporine at 10 μM served as positive control for caspase 3/7 activation. After 5 hours of incubatin cultures were assayed for caspase 3/7 levels using a luminometric assay kit (Promega, Madison, Wis., Caspase Glo 3/7 G811C lot #28731802).
Caspase 3/7 activation was calculated from relative light units from luminometric signals. Staurosporine was set at 100% caspase 3/7 activation, cell suspension alone without additions of reagents served as 0% caspase levels.
In in vitro studies, caspase activation of recombinantly expressed CD20 targeting scFv-Phor18 conjugate with “naked” antibody (scFv) in CD20 positive cells (Daudi Burkitt's lymphoma) was compared. Human Non-Hodgkin's lymphoma cells Daudi (CD20 positive, p 5) and Raji (CD20 positive, passage number p 3), were seeded at a density of 3,000 cells per well in opaque plates in heat inactivated full medium. […]
Relative caspase 3/7 activation was calculated from relative light units from luminometric signals. […]

[7] = Example 12, listed as MS4A1-Phor18
[8] = 46 h (text: 48 h / 46 hours), Example 16

“Anti-CD20 MS4A1: naked anti-CD20 antibody MS4A1 (Rituximab Like, R&D) [reference compound]” was tested, and the “IC50, U937 (CD20 negative) 2-46 h” value [1] was “Not toxic”, the “IC50, Raji 24 h” value ([2]; 24 h) was “Not toxic” and the “IC50, Raji 46 h” value ([2]; 46 h (text: 48 h)) was “Not toxic”. For the same molecule, the “IC50, Daudi 24 h” value ([3]; 24 h, Example 12) was “Not toxic”, the “IC50, Daudi 46 h” value ([3]; 46 h (text: 48 h), Example 12) was “Not toxic” and the “IC50, Daudi 2 h” value ([4]; Example 12) was “Not toxic”. The “IC50, Daudi 5 h” value ([4]; Example 12) was “Not toxic”.

Anti-CD20-Phor18 (MS4A1) was tested, and the “IC50, U937 (CD20 negative) 2-46 h” value [1] was “Not toxic”, the IC50 ([2]; 24 h, listed as MS4A1-Phor18, read-out: IC50, Raji 24 h) was 267 ± 13 nM and the IC50 ([2]; 24 h, read-out: IC50, Raji 24 h) was 267 ± 13 nM. It also gave an IC50 ([2]; 46 h (text: 48 h), read-out: IC50, Raji 46 h) of 227 ± 11 nM, an IC50 ([3]; 24 h, Example 12, read-out: IC50, Daudi 24 h) of 10.6 ± 2.1 nM and an IC50 ([3]; 46 h (text: 48 h), Example 12, read-out: IC50, Daudi 46 h) of 3 ± 1.2 nM. The “IC50, Raji 2 h” value ([5]; 2 h) was “not active”, the “IC50, Raji 5 h” value ([5]; 5 h) was “not active” and the “IC50, Daudi 2 h” value ([4]; Example 12) was “Not toxic”. The “IC50, Daudi 2 h” value [4, 7] was “not active”, the “IC50, Daudi 5 h” value ([4]; Example 12) was “Not toxic” and the “IC50, Daudi 5 h” value [4, 7] was “not active”.

B1: scFv: naked single chain Fv anti-CD20 fragment with Rituxan CDRs, E. coli, SEQ ID NO.:92 (protein)
scFv: HHHHHHDIQLTQSPAILSASPGEKVTMTCRASSSVSYIHWFQQKPGSSPKPWIYATSNLASGVPVRFSGSGSGTSYSLTISRVEAEDAATYYCQQWTSNPPTFGGGTKLEIGSTSGGGSGGGSGGGGSSVQLQQPGAELVKPGASVKMSCKASGYTFTSYNMHWVKQTPGRGLEWIGAIYPGNGDTSYNQKFKGKATLTADKSSSTAYMQLSSLTSEDSAVYYCARSTYYGGDWYFDVWGQGTTVTVSS
In the case of B1, the “IC50, U937 2-48 h” value [1] is reported as “not killed; also recorded: Not toxic”, the “IC50, Daudi 24 h” value ([3]; 24 h, Example 16) is reported as “Not toxic” and the “IC50, Daudi 46 h” value [3, 8] is reported as “Not toxic”. The “Caspase 3/7 levels compared to Staurosporine” value [6] was “did not detectably activate caspases”, the “IC50, Daudi 2 h” value ([4]; E. coli expressed, Example 16) was “Not toxic” and the “IC50, Daudi 5 h” value ([4]; E. coli expressed, Example 16) was “Not toxic”.

B2: Fv-CH3-CH3-Fv: naked bivalent anti-CD20 minibody, E. coli, SEQ ID NO.:94 (protein)
chain: DIQLTQSPAILSASPGEKVTMTCRASSSVSYIHWFQQKPGSSPKPWIYATSNLASGVPVRFSGSGSGTSYSLTISRVEAEDAATYYCQQWTSNPPTFGGGTKLEIGSTSGGGSGGGSGGGGSSVQLQQPGAELVKPGASVKMSCKASGYTFTSYNMHWVKQTPGRGLEWIGAIYPGNGDTSYNQKFKGKATLTADKSSSTAYMQLSSLTSEDSAVYYCARSTYYGGDWYFDVWGQGTTVTVSSGQPREPQVYTLPPSRDELTKNQVSLTCLVKGFYPSDIAVEWESNGQPENNYKTTPPVLDSDGSFFLYSKLTVDKSRWQQGNVFSCSVMHEALHNHYTQKSLSLSPGKGSTSGGGSGGGSGGGGSSGQPREPQVYTLPPSRDELTKNQVSLTCLVKGFYPSDIAVEWESNGQPENNYKTTPPVLDSDGSFFLYSKLTVDKSRWQQGNVFSCSVMHEALHNHYTQKSLSLSPGKVQLQQPGAELVKPGASVKMSCKASGYTFTSYNMHWVKQTPGRGLEWIGAIYPGNGDTSYNQKFKGKATLTADKSSSTAYMQLSSLTSEDSAVYYCARSTYYGGDWYFDVWGQGTTVTVSSGSTSGGGSGGGSGGGGSSDIQLTQSPAILSASPGEKVTMTCRASSSVSYIHWFQQKPGSSPKPWIYATSNLASGVPVFSGSGSGTSYSLTISRVEAEDAATYYCQQWTSNPPTFGGGTKLEI
B2 was tested, and the “IC50, U937 2-48 h” value [1] was “Not toxic”, the “IC50, Daudi 24 h” value ([3]; 24 h, Example 16) was “Not toxic” and the “IC50, Daudi 46 h” value [3, 8] was “Not toxic”.
